Measurements from US7947685B2, “Pyrazine-2-carboxyamide derivatives” (Hoffmann-La Roche Inc., priority 2005, dated 2011).

Target: T1, human mGlu 5a receptor (Homo sapiens, UniProt P41594)
T1 construct: expressed in transfected cells; host or cells: EBNA cells (transient transfection); cell membrane homogenates
Test: [3H]MPEP competition binding on membranes of EBNA cells transiently transfected with human mGlu 5a receptor
Conditions: displacement of [3H]MPEP (2 nM), 1 h at 4° C.
Protocol: The pharmacological activity of the compounds was tested using the following method: For binding experiments, cDNA encoding human mGlu 5a receptor was transiently transfected into EBNA cells using a procedure described by Schlaeger and Christensen [Cytotechnology 15:1-13 (1998)]. Cell membrane homogenates were stored at −80° C. until the day of assay where upon they were thawed and resuspended and polytronized in 15 mM Tris-HCl, 120 mM NaCl, 100 mM KCl, 25 mM CaCl2, 25 mM MgCl2 binding buffer at pH 7.4 to a final assay concentration of 20 μg protein/well.
Saturation isotherms were determined by addition of twelve [^3H]MPEP concentrations (0.04-100 nM) to these membranes (in a total volume of 200 μl) for 1 h at 4° C. Competition experiments were performed with a fixed concentration of [^3H]MPEP (2 nM), and IC50 values of test compounds evaluated using […] (0.3-10,000 nM). Incubations were performed for 1 h at 4° C.
At the end of the incubation, membranes were filtered onto unifilter (96-well white microplate with bonded GF/C filter preincubated 1 h in 0.1% PEI in wash buffer, Packard BioScience, Meriden, Conn.) with a Filtermate 96 harvester (Packard BioScience) and washed 3 times with cold 50 mM Tris-HCl, pH 7.4 buffer. Nonspecific binding was measured in the presence of 10 μM MPEP. The radioactivity on the filter was counted (3 min) on a Packard Top-count microplate scintillation counter with quenching correction after addition of 45 μl of microscint 40 (Canberra Packard S.A., Zürich, Switzerland) and shaking for 20 min.
The inhibition (antagonists) curves were fitted with a four parameter logistic equation giving IC50, and Hill coefficient using iterative non linear curve fitting software (Xcel fit).
For binding experiments the Ki values of the compounds tested are given. The Ki value is defined by the following formula: Ki=IC50/[1+L/Kd] in which the IC50 values are these concentrations of the compounds tested which cause 50% inhibition of the competing radioligand ([^3H]MPEP). L is the concentration of radioligand used in the binding experiment and the Kd value of the radioligand is empirically determined for each batch of membranes prepared.

T1 sequence (P41594 21-1180 isoform P41594-2 limits assumed): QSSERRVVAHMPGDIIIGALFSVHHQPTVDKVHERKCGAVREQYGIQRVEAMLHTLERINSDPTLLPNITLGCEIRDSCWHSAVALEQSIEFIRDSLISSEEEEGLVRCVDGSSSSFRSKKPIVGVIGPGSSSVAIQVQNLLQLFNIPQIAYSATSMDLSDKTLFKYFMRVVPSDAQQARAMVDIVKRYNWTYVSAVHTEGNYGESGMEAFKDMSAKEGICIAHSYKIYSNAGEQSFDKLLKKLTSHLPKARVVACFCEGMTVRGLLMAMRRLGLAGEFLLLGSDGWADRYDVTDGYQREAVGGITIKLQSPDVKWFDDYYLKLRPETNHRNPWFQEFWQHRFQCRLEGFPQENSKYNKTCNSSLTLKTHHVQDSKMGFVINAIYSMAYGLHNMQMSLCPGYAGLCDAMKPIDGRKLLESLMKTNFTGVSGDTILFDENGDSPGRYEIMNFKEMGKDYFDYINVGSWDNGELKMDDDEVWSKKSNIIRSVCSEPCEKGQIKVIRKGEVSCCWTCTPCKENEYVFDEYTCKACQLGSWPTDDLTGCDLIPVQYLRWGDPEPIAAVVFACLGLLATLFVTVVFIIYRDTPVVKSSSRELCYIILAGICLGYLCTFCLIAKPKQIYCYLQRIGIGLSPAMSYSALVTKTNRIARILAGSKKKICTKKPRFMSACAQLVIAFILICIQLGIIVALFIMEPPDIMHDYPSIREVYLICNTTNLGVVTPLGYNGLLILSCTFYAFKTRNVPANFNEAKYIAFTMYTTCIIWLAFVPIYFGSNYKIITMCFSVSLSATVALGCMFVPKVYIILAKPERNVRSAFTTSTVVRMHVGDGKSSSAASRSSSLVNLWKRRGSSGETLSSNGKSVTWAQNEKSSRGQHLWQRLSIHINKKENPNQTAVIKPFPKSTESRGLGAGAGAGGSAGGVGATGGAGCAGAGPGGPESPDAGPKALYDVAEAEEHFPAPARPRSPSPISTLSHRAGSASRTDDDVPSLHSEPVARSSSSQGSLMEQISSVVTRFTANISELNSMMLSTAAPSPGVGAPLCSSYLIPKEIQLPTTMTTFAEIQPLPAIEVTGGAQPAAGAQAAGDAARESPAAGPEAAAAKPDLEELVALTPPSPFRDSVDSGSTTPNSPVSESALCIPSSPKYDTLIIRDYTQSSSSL

Ki	SMILES
761 nM	Cc1cc(NC(=O)c2nccnc2Nc2ccccc2)ccn1 [Example 4, 3-Phenylamino-pyrazine-2-carboxylic acid (2-methyl-pyridin-4-yl)-amide]
71 nM	Cn1ccc(NC(=O)c2nccnc2Nc2cncc(F)c2)n1 [Example 3, 3-(5-Fluoro-pyridin-3-ylamino)-pyrazine-2-carboxylic acid (1-methyl-1H-pyrazol-3-yl)-amide]
1630 nM	Cc1cc(NC(=O)c2nc(C)cnc2Nc2cncc(Cl)c2)ccn1 [Example 5, 3-(5-Chloro-pyridin-3-ylamino)-6-methyl-pyrazine-2-carboxylic acid (2-methyl-pyridin-4-yl)-amide]
95 nM	O=C(Nc1cccc(Cl)c1)c1nccnc1Nc1ccccc1 [Example 2, 3-Phenylamino-pyrazine-2-carboxylic acid (3-chloro-phenyl)-amide]
54 nM	O=C(Nc1cccc(Cl)c1)c1nccnc1Nc1cccnc1 [Example 1, 3-(Pyridin-3-ylamino)-pyrazine-2-carboxylic acid (3-chloro-phenyl)-amide]
